Measured values from PMC9817100, “Preclinical profiles of SKB264, a novel anti-TROP2 antibody conjugated to topoisomerase inhibitor, demonstrated promising antitumor efficacy compared to IMMU-132” (Frontiers in Oncology, 2022).

How the values were obtained:
[1] = tissue distribution after single i.v. injection in tumor-bearing nude mice; assay type: in vivo; settings: [3H]KL610023 0.1 mg/100 µCi/kg single i.v.; HCC1806 xenografted nude mice
Method: A total of 96 female nude mice bearing human HCC1806 tumor cells were divided into 16 groups (n = 6 mice/group) according to body weights and tumor volumes. After receiving a single i.v. injection of [^3H]KL610023, at 0.083, 4, 24, and 72 h, as well as a single i.v. injection of [^3H-KL610023]SKB264, [^3H]SKB264-mAb, or [^3H-mAb]SKB264 at 1, 24, 168, and 336 h post-dosing, blood, tumor tissue, and 16 types of normal tissues were collected from the euthanized mice.
Plasma samples were directly quantified by liquid scintillation counting (LSC) without further manipulation; however, the blood and tissue samples were digested with 1N of KOH at 90°C prior to quantification by LSC. The […] (TRA) for blood, plasma, and tissues was converted to nanogram equivalent of [^3H]KL610023 or TRA (ng Eq./g).

[2] = target: T1, DNA topoisomerase I (Homo sapiens, UniProt P11387); test: topoisomerase I-mediated DNA relaxation assay (cell-free); assay type: biochemical; settings: read-out: DNA topoisomerase I inhibition (IC50)
T1 sequence (P11387 1-765): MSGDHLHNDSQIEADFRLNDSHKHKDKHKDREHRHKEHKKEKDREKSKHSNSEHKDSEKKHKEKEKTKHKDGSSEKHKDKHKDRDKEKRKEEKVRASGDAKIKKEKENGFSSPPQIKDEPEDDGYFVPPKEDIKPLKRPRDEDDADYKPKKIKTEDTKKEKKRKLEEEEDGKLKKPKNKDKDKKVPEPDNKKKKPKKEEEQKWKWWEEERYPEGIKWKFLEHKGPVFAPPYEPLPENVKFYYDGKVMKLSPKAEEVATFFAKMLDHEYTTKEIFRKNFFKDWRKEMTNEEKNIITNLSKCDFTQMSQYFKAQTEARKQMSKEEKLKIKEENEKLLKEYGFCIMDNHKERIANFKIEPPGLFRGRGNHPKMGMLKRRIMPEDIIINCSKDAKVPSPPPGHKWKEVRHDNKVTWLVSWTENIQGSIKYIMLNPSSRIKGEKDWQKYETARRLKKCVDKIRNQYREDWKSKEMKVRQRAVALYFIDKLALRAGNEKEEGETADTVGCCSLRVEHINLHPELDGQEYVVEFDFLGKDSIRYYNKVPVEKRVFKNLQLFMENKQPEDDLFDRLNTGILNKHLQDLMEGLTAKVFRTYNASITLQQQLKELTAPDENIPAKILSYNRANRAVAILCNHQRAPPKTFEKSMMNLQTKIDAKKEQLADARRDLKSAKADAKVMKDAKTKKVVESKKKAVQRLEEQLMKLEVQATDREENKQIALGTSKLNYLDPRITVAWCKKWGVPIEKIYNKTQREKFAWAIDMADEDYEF
Text: SKB264 is a TROP2-targeting ADC, which consists of a recombinant humanized anti-TROP2 antibody and a topoisomerase I inhibitor derived from Belotecan (KL610023), integrated together via a sulfonyl pyrimidine-CL2A-carbonate linker. The payload is conjugated with the antibody through irreversible nucleophilic aromatic substitution by tris (2-carboxyethyl) phosphine hydrochloride (TCEP HCl), a reducing agent that can reduce the interchain disulfide bounds. The drug-to-antibody ratio (DAR) of SKB264 was approximately 7.4, which was determined by the reversed-phase chromatography (RPC), and might be the theoretical maximum drug loading number for conventional interchain cysteine conjugation ( Figure 1B ). SKB264 was designed to release payload KL610023 after internalization by TROP2-expressing tumor cells. The inhibitory effect of KL610023 on topoisomerase I was almost similar to that of SN-38, as measured by a topoisomerase I-mediated DNA relaxation assay ( Figure 1C ).
Figure 1 Structure and characterization of SKB264. […] (B) The distribution of the conjugated drug determined by the reverse-phase chromatography analysis (L-0: Unconjugated light chain, L-1: Light chain conjugated with one payload, H-0: Unconjugated heavy chain, H-1: Heavy chain conjugated with one payload, H-2: Heavy chain conjugated with two payloads, H-3: Heavy chain conjugated with three payloads). […]

[3] = tested on: Calu-3 (TROP2+); test: cytotoxic assay (CellTiter-Glo, 72 h) Calu-3; assay type: cell-based; settings: Homo sapiens, read-out: IC50 cell growth inhibition
Method: Tumor cells were seeded on 96-well plates at the following concentrations: HCC1806 (3,000 cells per well), NCI-N87 (5,000 cells per well), BxPC-3 (2,000 cells per well), Calu-3 (8,000 cells per well), NCI-H23 (TROP2+, 3,000 cells per well), and NCI-H23 (parental, 3,000 cells per well). After overnight incubation, the diluted testing items were added respectively. After 72 h, cell viability was evaluated using a CellTiter-Glo Luminescent Cell Viability Assay (Promega Corp. Madison, WI), following the manufacturer’s instruction.

[4] = PK of SKB264 and KL610023 in cynomolgus monkeys (serum); assay type: in vivo; settings: unconjugated KL610023 0.24 mg/kg single i.v. infusion, n = 6, mean ± SD
Method: The PK properties of SKB264 and Tab were determined by ELISA, for which the lower limit of quantitation was 7.813 ng/ml. The serum concentration of KL610023 was measured by a validated liquid chromatography tandem mass spectrometry (LC/MS-MS), for which the lower limit of quantitation was 0.100 ng/ml. A total of 24 cynomolgus monkeys were randomized into four groups (n = 3/sex/group). Groups #1, #2, and #3 were treated with 1, 3, and 10 mg/kg of SKB264, respectively, via 15 min i.v. infusion once. Group #4 received 0.24 mg/kg of unconjugated KL610023 via i.v. infusion once. The serum concentrations of SKB264, Tab, and KL610023 were continually measured up to 672 h post-dose.
(§1) Phoenix WinNonlin 8.1 was used to calculate the PK parameters in the non-compartment model, including t 1/2, T max, C max, AUC0-t, and AUC0-∞. […] The half maximal effective concentration (EC50) and half maximal inhibitory concentration (IC50) were calculated using a nonlinear regression model with sigmoidal fitting. The in vitro antitumor activities of drugs were evaluated by a two-tailed paired t-test.

[5] = tested on: HCC1806 xenograft; test: PK-PD study, single dose, HCC1806 xenograft; assay type: in vivo, BALB/c nude mice; settings: tumor; payload after single i.v. 3 mg/kg SKB264 (KL610023) or IMMU-132 (SN-38); HCC1806 tumor-bearing mice; mean, n = 5
Method: as §1

[6] = both sexes, cynomolgus monkey, in vivo, iv

CC[C@@]1(O)C(=O)OCc2c1cc1n(c2=O)Cc2c-1nc1ccccc1c2CCN(C(C)C)S(C)(=O)=O [KL610023]
distribution of total radioactivity [1]: widely distributed in the tissues and organs that had more abundant blood flow | IC50 [2]: 700 nM | IC50 [3]: 1.36 nM | half-life ([4]; both sexes, cynomolgus monkey, in vivo, iv, 0.24 mg/kg): 5.7 h | AUC(0-inf) [4, 6]: 230 ± 43.9 ng·h/mL | AUC(0-t) [4, 6]: 228 ± 44.2 ng·h/mL | t 1/2 ([4]; 0.24 mg/kg): 5.65 ± 2.53 h | AUC0-∞ of payload [5]: 1949 ng·h/g | AUClast of payload [5]: 1903 ng·h/g
